Columns and labels:
Rattus norvegicus = assay: Antidiabetic activity against STZ-induced diabetic Sprague-Dawley rat assessed as reduction in fasting blood glucose level at 0.1 mg/kg,po for 2 months; format: functional; set-up: scale not given: the % may be the effect or the level left; settings: 1460 h
Mus musculus = assay: Antidiabetic activity against diabetic KKAy mouse model assessed as decrease in plasma glucose level at 50 mg/kg,po by glucose analyzer; format: functional; set-up: scale not given: the % may be the effect or the level left

Compound	Activity (Rattus norvegicus)	Activity (Mus musculus)
Cc1oc(-c2ccccc2)nc1CCC(=O)c1ccc(CC2SC(=O)NC2=O)cc1 (configuration not stated) [DARGLITAZONE]	80%	
Cc1c(C)c2c(c(C)c1O)CCC(C)(COc1ccc(CC3SC(=O)NC3=O)cc1)O2 (configuration not stated) [TROGLITAZONE]		38.5%

Source: ChEMBL document CHEMBL5260796, “Thiazolidinediones and PPAR orchestra as antidiabetic agents: From past to present” (Eur J Med Chem, 2017)
